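48-hour exposure; five concentrations; linearly interpolated endpoints. GI50 is the concentration that inhibits growth by half. TGI: concentration producing complete growth inhibition.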
Legend:
Assay in all cases: NCI-60 cell line screen, 48 h
RXF 393 renal = test system: RXF 393 renal
MOLT-4 leukemia = test system: MOLT-4 leukemia
HCC-2998 colon = test system: HCC-2998 colon
BT-549 breast = test system: BT-549 breast
CAKI-1 renal = test system: CAKI-1 renal
OVCAR-4 ovarian = test system: OVCAR-4 ovarian
CCRF-CEM leukemia = test system: CCRF-CEM leukemia
NCI-H460 lung = test system: NCI-H460 lung
MDA-MB-231 breast = test system: MDA-MB-231 breast
SW-620 colon = test system: SW-620 colon
SN12C renal = test system: SN12C renal
RPMI-8226 leukemia = test system: RPMI-8226 leukemia
M14 melanoma = test system: M14 melanoma
HCT-15 colon = test system: HCT-15 colon
OVCAR-8 ovarian = test system: OVCAR-8 ovarian
SK-OV-3 ovarian = test system: SK-OV-3 ovarian
T-47D breast = test system: T-47D breast
ACHN renal = test system: ACHN renal
U251 CNS = test system: U251 CNS
SF-295 CNS = test system: SF-295 CNS
UO-31 renal = test system: UO-31 renal
IGROV1 ovarian = test system: IGROV1 ovarian
HCT-116 colon = test system: HCT-116 colon
LOX IMVI melanoma = test system: LOX IMVI melanoma
K-562 leukemia = test system: K-562 leukemia
TK-10 renal = test system: TK-10 renal
SF-539 CNS = test system: SF-539 CNS
COLO 205 colon = test system: COLO 205 colon

## CCCCCCCCCC(CCCC(O)CC(=O)O)OC1OC(COC2OC(C)C(O)C(O)C2O)C(O)C(O)C1OC1OC(CO)C(O)C(O)C1OC1OC(C)C(OC(=O)CC(C)C)C(O)C1O (stereo unspecified)
RXF 393 renal
  GI50: > 60 µM
  TGI: > 60 µM
MOLT-4 leukemia
  GI50: > 60 µM
  TGI: > 60 µM
HCC-2998 colon
  GI50: > 60 µM
  TGI: > 60 µM
BT-549 breast
  GI50: > 60 µM
  TGI: > 60 µM
CAKI-1 renal
  GI50: > 60 µM
  TGI: > 60 µM
OVCAR-4 ovarian
  GI50: > 60 µM
  TGI: > 60 µM
CCRF-CEM leukemia
  GI50: > 60 µM
  TGI: > 60 µM
NCI-H460 lung
  GI50: > 60 µM
  TGI: > 60 µM
MDA-MB-231 breast
  GI50: > 60 µM
  TGI: > 60 µM
SW-620 colon
  GI50: > 60 µM
  TGI: > 60 µM
SN12C renal
  GI50: > 60 µM
  TGI: > 60 µM
RPMI-8226 leukemia
  GI50: > 60 µM
  TGI: > 60 µM
M14 melanoma
  GI50: > 60 µM
  TGI: > 60 µM
HCT-15 colon
  GI50: > 60 µM
  TGI: > 60 µM
OVCAR-8 ovarian
  GI50: > 60 µM
  TGI: > 60 µM
SK-OV-3 ovarian
  GI50: > 60 µM
  TGI: > 60 µM
T-47D breast
  GI50: > 60 µM
  TGI: > 60 µM
ACHN renal
  GI50: > 60 µM
  TGI: > 60 µM
U251 CNS
  GI50: > 60 µM
  TGI: > 60 µM
SF-295 CNS
  GI50: > 60 µM
  TGI: > 60 µM
UO-31 renal
  GI50: > 60 µM
  TGI: > 60 µM
IGROV1 ovarian
  GI50: > 60 µM
  TGI: > 60 µM
HCT-116 colon
  GI50: > 60 µM
  TGI: > 60 µM
LOX IMVI melanoma
  GI50: > 60 µM
  TGI: > 60 µM
K-562 leukemia
  GI50: > 60 µM
  TGI: > 60 µM
TK-10 renal
  GI50: > 60 µM
  TGI: > 60 µM
SF-539 CNS
  GI50: > 60 µM
  TGI: > 60 µM
COLO 205 colon
  GI50: > 60 µM
  TGI: > 60 µM
